From patent US5045566A, “Novel imidate insecticides” (ICI Americas Inc., priority 1989, dated 1991)

Assays:
Assay type in all cases: in vivo
[1] = test system: Housefly [Musca domestica]; test: Housefly contact mortality in dishes (HF), 48 hours; conditions: μg of test compound per 25 female flies
Procedure: (§1) The compounds in Tables 1 and 2 above were tested for insecticidal activity using the following testing procedures. LC50 values, based on the results of these tests and calculated according to dosage-mortality curves, are expressed in Table 3.
Housefly [Musca domestica]:
Test compounds were diluted in acetone and aliquots pipetted onto the bottom of aluminum dishes. To ensure even spreading of the chemical on the bottom of the dishes, 1 ml of acetone containing 0.01% peanut oil was also added to each dish. After all solvents had evaporated, the dishes were placed in circular cardboard cages containing 25 female houseflies, 1-2 days old. The cages were covered on the bottom with cellophane and on the top with tulle netting, and each contained a sugar-water saturated cotton plug for maintenance of the flies. Mortality was recorded after 48 hours. Test levels ranged from 100 μg/25 female houseflies downward. The LC-50 value is expressed below in Table 3 under the heading "HF", in terms of μg of the test compound per 25 female flies.

[2] = test system: Black Bean Aphid [Aphis fabae (Scop.)]; test: Black bean aphid spray test on nasturtium (BBA), 48 hours; conditions: percent of test compound in sprayed solution
Procedure: as §1
Black Bean Aphid [Aphis fabae (Scop.)]:
Nasturtium plants (Tropaeolum sp.) approximately 5 cm tall, were transplanted into sandy loam soil in small cups and infested with 25-50 black bean aphids of mixed ages. Twenty-four hours later they were sprayed to the point of runoff with 50-50 acetone-water solutions of the test compounds. Treated plants were held in the greenhouse and mortality was recorded after 48 hours. Test concentrations ranged from 0.05% downward. The LC-50 value is expressed below in Table 3 under the heading "BBA" in terms of percent of the test compound in the sprayed solution.

[3] = test system: Tobacco Budworm [Heliothis virescens (Fabricius)] eggs; test: Tobacco budworm eggs (TBW-E); conditions: percent in solution; 2-day old eggs
Procedure: as §1
Tobacco Budworm [Heliothis virescens (Fabricius)]:
(b). Eggs: Paper towel patches of 2-day old eggs of the tobacco budworm were dipped in acetone solutions of the test compound and placed in petri dishes containing a portion of larval rearing medium. Treated eggs were maintained at 78° F. and mortality was recorded after all control eggs had hatched and the young larvae were feeding on the media. Test concentrations ranged from 0.1% downward. The LC-50 value is expressed below in Table 3 under the heading "TBW-E" in terms of percent of the test compound in the solution.

[4] = test system: Cabbage Looper [Trichoplusia ni (Hubner)]; test: Cabbage looper leaf dip (CL), 3-5 days; conditions: percent in solution, second-instar larvae
Procedure: as §1
Cabbage Looper [Trichoplusia ni (Hubner)]:
Test compounds were diluted in a 50-50 acetone-water solution. Cotyledons of hyzini squash (Calabacita abobrinha), approximately 1×1.5 inches, were immersed in the test solutions for 2-3 seconds and placed on a wire screen to dry. The dried leaves were placed in petri dishes containing a moistened piece of filter paper and infested with 5 second-instar cabbage looper larvae. The dishes were placed in a high humidity chamber. Mortality of the larvae was recorded 3-5 days later. Test concentrations ranged from 0.1% downward. The LC-50 value is expressed below in Table 3 under the heading "CL" in terms of percent of the test compound in solution.

Compound	LC50 HF [1]	LC50 BBA [2]	LC50 TBW E (eggs) [3]	LC50 CL [4]
CSc1cccc(N=C(OCc2cccc(Oc3ccccc3)c2)C(C)C)c1 [Compound 166]	22 µg	0.001%	> 0.1%	0.009%
CC(C)C(=Nc1ccc(F)c(Cl)c1)OCc1cccc(Oc2ccc(I)cc2)c1 [Compound 447]	33 µg	> 0.05%	> 0.1%	0.0009%
COCc1c(F)c(F)c(COC(=Nc2ccc3c(c2)OCO3)C(C)C)c(F)c1F [Compound 501]	20 µg	> 0.05%	> 0.1%	0.00045%
Cc1cc(N=C(OCc2cccc(Oc3ccccc3)c2)C(C)C)ccc1Br [Compound 127]	58 µg	0.001%	0.04%	0.01%
CC(C)C(=Nc1cccc(SC(F)(F)F)c1)OCc1cccc(Oc2ccc(F)cc2)c1 [Compound 272]	> 100 µg	> 0.05%	> 0.1%	0.0024%
CC(C)C(=Nc1c(Br)cc(F)cc1Br)OCc1cccc(Oc2ccccc2)c1 [Compound 130]	> 100 µg	0.05%	> 0.1%	0.005%
CC(C)C(=Nc1ccc2c(c1)OC(C)(C)O2)OCc1cccc(Oc2ccc(Cl)cc2)c1 [Compound 241]	> 100 µg	< 0.05%	> 0.1%	0.0004%
CC(C)C(=Nc1ccc(F)cc1)OCc1cccc(Oc2cccc(Cl)c2)c1 [Compound 205]	50 µg	0.03%	> 0.1%	0.004%
CC1CC1C(=Nc1ccc(Cl)cc1)OCc1cccc(Oc2ccccc2)c1 (stereo not drawn) [Compound 15]	> 100 µg	> 0.05%	> 0.1%	0.025%
COc1ccc(Oc2cccc(COC(=Nc3ccc(F)cc3)C(C)C)c2)cc1 [Compound 220]	85 µg	0.03%	> 0.1%	0.007%
CC(C)C(=Nc1ccc(F)c(Cl)c1)OCc1cccc(Oc2ccc(C(F)(F)F)cc2)c1 [Compound 247]	> 100 µg	> 0.05%	> 0.1%	0.009%
CC(C)C(=Nc1ccc2c(c1)CCO2)OCc1cccc(Oc2ccccc2)c1 [Compound 243]	9 µg	0.01%	> 0.1%	0.005%
Cc1c(COC(=Nc2ccc(F)cc2)C(C)C)cccc1-c1ccccc1 [Compound 458]	100 µg	> 0.05%	> 0.05%	0.007%
CCSc1ccc(N=C(OCc2cccc(Oc3ccccc3)c2)C(C)C)cc1Cl [Compound 103]	> 100 µg	0.001%	> 0.1%	0.015%
COc1ccc(Oc2cccc(COC(=Nc3ccc(F)c(Cl)c3)C(C)C)c2)cc1 [Compound 221]	62 µg	0.01%	> 0.1%	0.0027%
